Laboratory results from publication PMC8228819, “Comparison of a Short Linear Antimicrobial Peptide with Its Disulfide-Cyclized and Cyclotide-Grafted Variants against Clinically Relevant Pathogens” (Microorganisms, 2021).
≈ marks a conversion by molar mass, not a printed value. Like-named read-outs stand apart in the source and are kept apart here. Marks after values point to notes of the source that are not given here. Bridge positions count the residues as written; N and C are the ends. Square brackets hold non-standard residues; d marks the D form. Ends that are not written are not given here. Peptide text beside a SMILES is read from it. βAla = NCCC(=O)O

How the values were obtained:
[1] = tested on: Acinetobacter baumannii, clinical isolate from SGUL; assay type: cell-based; conditions: triplicate, modal value
Procedure: (§1) The following strains were used in this study: Escherichia coli, ATCC 25922, Staphylococcus aureus, epidemic methicillin-resistant EMRSA-15, Klebsiella pneumoniae, clinical isolate from St George’s, University of London (SGUL, London, UK), Acinetobacter baumannii, clinical isolate from SGUL, Pseudomonas aeruginosa, PA01 wildtype strain, and Enterococcus faecalis, vancomycin-resistant ATCC 51299.
(§2) The minimal inhibitory concentration (MIC) was determined in a microdilution assay using Mueller–Hinton (MH) or Brain Heart Infusion Broth (BHI) broth following a previously published protocol. Briefly, a twofold serial dilution of the antibiotics and peptides were prepared and added to a bacteria solution, resulting in 2–5 10^5 CFU/mL. The microtiter plates (polypropylene, Corning, Corning, NY, USA) were incubated for 18 h at 37 °C and MICs were taken visually. Based on our experience with proline rich peptides, their low activity in Mueller–Hinton broth, and their strong activity in diluted broth, we decided to also measure the activity of the peptide set in a 1/5 dilution of the broth. MICs in the presence of serum were established using human serum (Zen-Bio, Durham, NC, USA) and heat-inactivated serum (Sigma-Aldrich, St. Louis, MO, USA). A total of 20% (v/v) of each human serum was mixed with bacterial solution and added to predetermined concentrations of antibiotics and peptides, resulting in a final 10% (v/v) concentration of serum and 2–5 × 10^5 bacteria.

[2] = tested on: Staphylococcus aureus, epidemic methicillin-resistant EMRSA-15; assay type: cell-based; conditions: triplicate, modal value
Procedure: as §1, §2

[3] = tested on: Pseudomonas aeruginosa, PA01 wildtype strain; assay type: cell-based; conditions: triplicate, modal value
Procedure: as §1, §2

[4] = tested on: Klebsiella pneumoniae, clinical isolate from St George's, University of London; assay type: cell-based
Procedure: as §1, §2

[5] = tested on: Enterococcus faecalis, vancomycin-resistant ATCC 51299; assay type: cell-based
Procedure: as §1, §2

[6] = tested on: Escherichia coli, ATCC 25922; assay type: cell-based; conditions: triplicate, modal value
Procedure: as §1, §2

Serum stability assay = assay type: in vitro ADME, human; conditions: 37 °C, UPLC-MS; for half-life at 100 μM: 100% human serum (Sigma-Aldrich, human male AB plasma), 100 μM peptide, 0-24 h, TFA precipitation, triplicates; for Peptide state after one hour in human serum: 100% human serum, 100 μM, 1 h
Procedure: (§3) Serum stability assays were performed in 100% human serum (Sigma-Aldrich, St. Louis MO, USA, human male AB plasma). Serum was centrifuged to remove lipids and incubated with the peptides at 100 μM for 0, 0.5, 1, 3, 6, and 24 h at 37 °C. Serum proteins were precipitated by adding 3 μL of TFA to 40 μL of peptide – serum sample (final TFA 7%). The remaining supernatant was diluted with 50:50 solvent A/B. The amount of peptide remaining (%) was quantified by UPLC-MS analysis. For pH stability experiments, peptides were incubated at a concentration of 20 μM at pH 1.2 and 7.5 for 24 h, and stability was monitored by UPLC analysis.

pH stability = assay type: physicochemical; conditions: 20 μM, pH 1.2 and 7.5, 24 h, UPLC
Procedure: as §3

E. coli = conditions: cited from earlier work
Description: (§4) Several naturally occurring cyclotide sequences have been proposed to have antimicrobial activity. However, the cyclotides tested in that study were synthetically made and had rather weak activity against a range of common pathogenic bacteria, including Escherichia coli and Staphylococcus aureus, but were only active in low salt media, losing all activity under physiological conditions. A number of other studies have also reported antibacterial activity for some natural cyclotides or synthetic derivatives of them. For example, fractions comprised of cyclotid ...

[7] = tested on: S. enterica serovar Typhimurium LT2; conditions: cited from earlier work
Description: as §4

Staphylococcus aureus = conditions: cited from earlier work
Description: as §4

[8] = 1/5 MH + 10% heat inactivated human serum

Compound: CC[C@H](C)[C@@H]1NC(=O)[C@H](Cc2c[nH]c3ccccc23)NC(=O)[C@H](CCCNC(=N)N)NC(=O)[C@H](C(C)C)NC(=O)[C@H](CCCNC(=N)N)NC(=O)[C@H](CCCNC(=N)N)NC(=O)[C@H](CCCCN)NC(=O)CCNC(=O)CCNC(=O)[C@@H](N)CSSC[C@@H](C(=O)O)NC(=O)CCNC(=O)CCNC(=O)[C@H](Cc2c[nH]c3ccccc23)NC(=O)[C@H]([C@@H](C)CC)NC1=O [c-optP7] (H-C[βAla][βAla]KRRVRWIIW[βAla][βAla]C-OH; disulfide 1-15)
- MIC ([1]; 1/5 MH + 10% human serum): 71 µM
- MIC ([1]; 1/5 MH): 4 µM (≈ 7.2 µg/mL)
- MIC [2, 8]: >142 µM
- MIC ([2]; 1/5 MH + 10% human serum): >142 µM
- MIC ([2]; 1/5 MH): 18 µM (≈ 32.4 µg/mL)
- MIC ([2]; MH + 10% human serum): >142 µM
- MIC ([2]; MH): 142 µM (≈ 256 µg/mL)
- MIC ([3]; 1/5 MH + 10% human serum): 35 µM
- MIC ([3]; 1/5 MH): 9 µM (≈ 16.2 µg/mL)
- MIC ([3]; MH + 10% human serum): >142 µM
- MIC ([3]; MH, microdilution, 18 h 37 °C, visual): 142 µM (≈ 256 µg/mL)
- MIC ([4]; 1/5 MH + 10% human serum, triplicate, modal value): 142 µM
- MIC ([4]; 1/5 MH, triplicate, modal value): 71 µM (≈ 128 µg/mL)
- MIC ([4]; MH, single measurement (asterisk)): >142 * µM
- MIC ([5]; 1/5 BHI + 10% human serum, triplicate, modal value): >142 µM
- MIC ([5]; 1/5 BHI, triplicate, modal value): 18 µM (≈ 32.4 µg/mL)
- MIC ([5]; BHI, single measurement (asterisk)): >142 * µM
- MIC [6, 8]: 35 µM
- MIC ([6]; 1/5 MH + 10% human serum): 18 µM
- MIC ([6]; 1/5 MH): 4 to 9 µM
- MIC ([6]; MH + 10% human serum): >142 µM
- MIC ([6]; MH): 71 µM (≈ 128 µg/mL)
- half-life at 100 μM (Serum stability assay): 9 min
- Peptide state after one hour in human serum (Serum stability assay): fully degraded
- pH stability (pH stability): exceptional stability over 24 h

Compound: KRRVRWIIW-NH2 [optP7]
- MIC [2, 8]: 6 µM
- MIC ([2]; 1/5 MH + 10% human serum): 6 µM
- MIC ([2]; 1/5 MH): 1.5 µM
- MIC ([2]; MH + 10% human serum): 49 µM
- MIC ([2]; MH): 6 µM
- MIC ([4]; clinical isolate from St George's, University of London, 18 h): 1.5 µM
- MIC ([5]; ATCC 51299, 18 h): 0.8 µM
- half-life at 100 μM (Serum stability assay): 13 min
- Peptide state after one hour in human serum (Serum stability assay): fully degraded
- pH stability (pH stability): exceptional stability over 24 h

Compound: cycloviolacin O2
- MIC (E. coli): 2 µM
- MIC [7]: ~9 µM
- MIC (Staphylococcus aureus): > 50 µM
